Results on two compounds are retold here after paper PMC12554789, “Benzoxazole Derivatives as Potent FXR and PPARα Dual Agonists With Anti‐Fibrotic and Metabolic Regulatory Effects” (MedComm, 2025).

In one experiment the target is T1, PPARα LBD (Homo sapiens, UniProt Q07869).
T1 construct: purchased Sigma SRP2054
T1 sequence (Q07869 239-466 limits assumed): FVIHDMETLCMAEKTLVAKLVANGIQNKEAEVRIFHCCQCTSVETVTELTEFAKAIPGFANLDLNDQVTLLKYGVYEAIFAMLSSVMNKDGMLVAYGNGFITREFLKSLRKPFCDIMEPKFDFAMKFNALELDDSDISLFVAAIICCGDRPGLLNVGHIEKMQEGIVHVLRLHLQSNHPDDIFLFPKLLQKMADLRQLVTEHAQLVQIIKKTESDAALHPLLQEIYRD
Kind of experiment: Thermal shift assay, PPARα LBD. In kind it is binding. Particulars: ligand 20 µM.

Experiment [1] has as its system TAA-induced liver fibrosis model. Kind of experiment: TAA-induced liver fibrosis mouse model (8 weeks). The format is in vivo. The protocol: To further explore the effects on fibrosis suppression, a thioacetamide (TAA)-induced liver fibrosis model was used. Liver fibrosis was induced by intraperitoneal injection of TAA at a dose of 150 mg/kg, administered three times a week for 8 weeks. […] After the treatment period, the mice were euthanized using CO2. Serum was collected for biochemical analysis, and liver tissues were immediately harvested and frozen in liquid nitrogen for subsequent quantitative reverse transcription polymerase chain reaction (qRT-PCR), western blotting, and biological analysis. Furthermore, some liver samples were fixed in 4% paraformaldehyde buffered to neutral pH for histochemical analysis. For long-term storage, remaining liver samples were stored at -80°C in a deep freezer. […] Liver fibrosis was induced by administering TAA intraperitoneally at a dose of 150 mg/kg three times a week for a duration of […]. […] Upon completion of the treatment period, mice were euthanized using CO2, and serum and liver tissue samples were harvested for subsequent evaluation. Serum samples collected from mice were incubated at room temperature for 20 min before being centrifuged at 3000 rpm for 20 min to separate blood cells and clotting factors. Serum alanine transaminase (ALT) and aspartate aminotransferase (AST) activities were measured using ALT and AST assay kits (Asan Pharm, Seoul, Republic of Korea) to assess liver injury. Blood urea nitrogen (BUN) levels in the serum were analyzed using a commercial assay kit ([…]-BUN, […] Diagnostics, Seoul, Republic of Korea; catalog number 1120171) following the manufacturer's guidelines. Creatinine levels in the serum were quantified using the […] assay kit ([…] Diagnostics; catalog number 1120051) in accordance with the manufacturer's instructions. Liver and kidney tissues were processed to detect histological changes through the following procedures. The tissues were fixed in 4% paraformaldehyde, and paraffin-embedded sections were prepared for H&E staining according to standard procedures. […]

A further experiment deals with T2, FXR LBD (Homo sapiens, UniProt Q96RI1).
T2 construct: purchased Sigma SRP2137
T2 sequence (Q96RI1 262-486 limits assumed): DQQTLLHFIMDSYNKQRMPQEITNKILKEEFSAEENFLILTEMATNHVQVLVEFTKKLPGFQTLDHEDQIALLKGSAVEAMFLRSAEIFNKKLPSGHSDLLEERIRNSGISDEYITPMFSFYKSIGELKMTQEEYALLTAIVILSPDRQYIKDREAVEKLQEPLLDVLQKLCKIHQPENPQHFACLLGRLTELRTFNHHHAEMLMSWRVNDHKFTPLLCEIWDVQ
Nature of the experiment: Thermal shift assay, FXR LBD. In kind it is binding. The conditions noted are these: ligand 20 µM.

Structures are written as SMILES.

With `CC(C)(Oc1ccc(C(=O)c2ccc(Cl)cc2)cc1)C(=O)O` [fenofibric acid], the “Melting temperature of PPARα LBD” value at PPARα LBD is given as “altered”.
Regarding `CC[C@H]1[C@@H](O)[C@@H]2[C@H](CC[C@]3(C)[C@@H]([C@H](C)CCC(=O)O)CC[C@@H]23)[C@@]2(C)CC[C@@H](O)C[C@@H]12` [OCA, obeticholic acid], the “Damaged hepatocytes (H&E)” value in experiment [1] (TAA mice) is given as “fewer damaged hepatocytes”. Besides, the “Serum AST level” value in experiment [1] (TAA mice, oral 3 mg/kg daily, increase still higher than in MHY5396 group) was “smaller increase in AST levels than that in the TAA group”. The Protection against fibrosis entry in experiment [1] (TAA model, MHY5396 versus OCA) was “protective effects against fibrosis”. The “Melting temperature of FXR LBD” value at FXR LBD is “altered”.
